Measured values taken from publication PMC2806602 (The Journal of neuroscience : the official journal of the …, 2009).
Where a chain is given by its changes, count along the chain named. Where two headings read alike, the source gives them in different places.

Key:
Assay type in all cases: cell-based
GluRδ2^Lc = molecular target: T1, GluRδ2^Lc (Rattus norvegicus, UniProt Q63226, A654T)
T1 sequence (Q63226 24-1007 A654T): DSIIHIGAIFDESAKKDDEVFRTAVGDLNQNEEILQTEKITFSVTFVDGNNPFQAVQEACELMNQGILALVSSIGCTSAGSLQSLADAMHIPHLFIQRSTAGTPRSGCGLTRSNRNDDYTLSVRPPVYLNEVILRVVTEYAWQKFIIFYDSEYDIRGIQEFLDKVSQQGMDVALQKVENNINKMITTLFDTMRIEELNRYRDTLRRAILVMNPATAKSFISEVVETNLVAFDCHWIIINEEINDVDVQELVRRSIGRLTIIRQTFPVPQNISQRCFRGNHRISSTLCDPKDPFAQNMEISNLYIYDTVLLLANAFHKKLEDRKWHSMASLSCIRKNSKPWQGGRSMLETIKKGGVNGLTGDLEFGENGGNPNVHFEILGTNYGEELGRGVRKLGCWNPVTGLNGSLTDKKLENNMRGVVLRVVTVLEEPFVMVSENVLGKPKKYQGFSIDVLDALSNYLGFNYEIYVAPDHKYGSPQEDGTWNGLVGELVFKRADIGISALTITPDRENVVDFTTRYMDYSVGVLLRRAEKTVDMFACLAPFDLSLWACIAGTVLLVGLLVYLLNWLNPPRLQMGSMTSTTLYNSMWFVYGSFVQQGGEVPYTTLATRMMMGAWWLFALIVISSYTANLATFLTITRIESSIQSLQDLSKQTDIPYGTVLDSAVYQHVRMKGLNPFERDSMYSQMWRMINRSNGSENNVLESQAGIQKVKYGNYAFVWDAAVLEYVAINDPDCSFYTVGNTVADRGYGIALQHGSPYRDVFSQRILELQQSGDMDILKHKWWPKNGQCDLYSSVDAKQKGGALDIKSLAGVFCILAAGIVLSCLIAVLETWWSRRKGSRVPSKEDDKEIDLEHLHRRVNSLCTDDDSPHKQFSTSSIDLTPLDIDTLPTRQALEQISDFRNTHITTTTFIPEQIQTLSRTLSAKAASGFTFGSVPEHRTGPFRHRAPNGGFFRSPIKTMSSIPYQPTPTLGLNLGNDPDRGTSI

GluRδ2^Lc D782A = molecular target: T2, GluRδ2^Lc D782A (Rattus norvegicus, UniProt Q63226, A654T/D782A); assay: Two-electrode voltage-clamp recordings in Xenopus oocytes, GluRδ2^Lc D782A
T2 sequence (Q63226 24-1007 A654T/D782A): T1 sequence (Q63226 24-1007 A654T) with D759A

GluRδ2^Lc E531A+D782A = molecular target: T3, GluRδ2^Lc E531A+D782A (Rattus norvegicus, UniProt Q63226, A654T/D782A/E531A); assay: Two-electrode voltage-clamp recordings in Xenopus oocytes, GluRδ2^Lc E531A+D782A
T3 sequence (Q63226 24-1007 E531A/A654T/D782A): T1 sequence (Q63226 24-1007 A654T) with E508A, D759A

spontaneously active current relative to baseline with Ba^2+ (GluRδ2^Lc; 0.5 mM Ba^2+ exchanged with 0.5 mM of the divalent cation) | Ca^2+ potentiation (relative to baseline) (GluRδ2^Lc; 3 mM Ca^2+, baseline spontaneously active current, ± SEM) | maximal fold potentiation relative to baseline spontaneously active currents (GluRδ2^Lc; Ca^2+ concentration-response, fitted maximum) | nH of reduction of D-serine potency by extracellular Ca^2+ (GluRδ2^Lc; Hill coefficient) | nH of Ca^2+ potentiation of GluRδ2^Lc currents (GluRδ2^Lc; Hill coefficient, in the absence of D-serine) | nH of Ca^2+ potentiation of GluRδ2^Lc currents (GluRδ2^Lc; Hill coefficient, in the presence of 1 mM D-serine) | EC50 (GluRδ2^Lc; read-out: EC50 of Ca^2+ to potentiate GluRδ2^Lc currents, in the presence of 1 mM D-serine) | EC50 (GluRδ2^Lc; read-out: EC50 of Ca^2+ to potentiate spontaneously active GluRδ2^Lc currents, in the absence of D-serine) | Ca^2+ potentiation (relative to baseline) (GluRδ2^Lc D782A; 3 mM Ca^2+, ± SEM) | Ca^2+ potentiation (relative to baseline) (GluRδ2^Lc E531A+D782A; 3 mM Ca^2+, ± SEM) | D-serine + 0 mM Ca^2+ nH (GluRδ2^Lc; Hill slope, 0 mM Ca^2+) | D-serine + 3 mM Ca^2+ nH (GluRδ2^Lc; Hill slope, 3 mM Ca^2+) | D-serine + 0 mM Ca^2+ nH (GluRδ2^Lc D782A; Hill slope, 0 mM Ca^2+) | D-serine + 3 mM Ca^2+ nH (GluRδ2^Lc D782A; Hill slope, 3 mM Ca^2+) | D-serine + 0 mM Ca^2+ nH (GluRδ2^Lc E531A+D782A; Hill slope, 0 mM Ca^2+) | D-serine + 3 mM Ca^2+ nH (GluRδ2^Lc E531A+D782A; Hill slope, 3 mM Ca^2+) | Structure (SMILES)
3.91 ± 0.22 | 3.8 ± 0.23 fold | 4.1 ± 0.2 fold | 1.3 | 1.7 | 2.3 | 676 ± 13 µM | 205 ± 7 µM | 0.8 ± 0.02 fold | 0.9 ± 0.04 fold | – | – | – | – | – | – | [Ca+2] [Ca^2+, calcium]
– | – | – | – | – | – | – | – | – | – | 1.0 | 2.1 | 1.0 | 1.1 | 2.3 | 2.4 | N[C@H](CO)C(=O)O [D-serine]
